Counter-ions that a name gives are not always drawn.
Columns and labels:
[1] = Pharmacokinetic study in Wistar rats, oral gavage; assay type: in vivo; conditions: oral gavage at 3 mg/kg, plasma, FIG. 1
Method: Pharmacokinetic (PK) studies were carried out at Sundia MediTech Co. Ltd., Shanghai. […] At various times between 15 minutes and 8 hours, blood samples were collected by tail vein bleed. Plasma was analyzed by high performance liquid chromatography-tandem mass spectrometry using a Shimadzu LC30AD HPLC and a QTRAP 5500 mass spectrometer. The time course and basic PK parameters thus obtained are outlined in FIG. 1.

[2] = biological target: T1, human recombinant SSAO/VAP-1 (Homo sapiens, UniProt Q16853); test: Inhibition of human recombinant SSAO/VAP-1 (Amplex Red fluorometric assay); assay type: biochemical; conditions: 30 min incubation, 37° C., benzylamine substrate
T1 construct: a cloned cDNA template corresponding to residues 34-763 of human SSAO/VAP-1; TEV cleavage site (N); made in house
T1 sequence (Q16853 34-763): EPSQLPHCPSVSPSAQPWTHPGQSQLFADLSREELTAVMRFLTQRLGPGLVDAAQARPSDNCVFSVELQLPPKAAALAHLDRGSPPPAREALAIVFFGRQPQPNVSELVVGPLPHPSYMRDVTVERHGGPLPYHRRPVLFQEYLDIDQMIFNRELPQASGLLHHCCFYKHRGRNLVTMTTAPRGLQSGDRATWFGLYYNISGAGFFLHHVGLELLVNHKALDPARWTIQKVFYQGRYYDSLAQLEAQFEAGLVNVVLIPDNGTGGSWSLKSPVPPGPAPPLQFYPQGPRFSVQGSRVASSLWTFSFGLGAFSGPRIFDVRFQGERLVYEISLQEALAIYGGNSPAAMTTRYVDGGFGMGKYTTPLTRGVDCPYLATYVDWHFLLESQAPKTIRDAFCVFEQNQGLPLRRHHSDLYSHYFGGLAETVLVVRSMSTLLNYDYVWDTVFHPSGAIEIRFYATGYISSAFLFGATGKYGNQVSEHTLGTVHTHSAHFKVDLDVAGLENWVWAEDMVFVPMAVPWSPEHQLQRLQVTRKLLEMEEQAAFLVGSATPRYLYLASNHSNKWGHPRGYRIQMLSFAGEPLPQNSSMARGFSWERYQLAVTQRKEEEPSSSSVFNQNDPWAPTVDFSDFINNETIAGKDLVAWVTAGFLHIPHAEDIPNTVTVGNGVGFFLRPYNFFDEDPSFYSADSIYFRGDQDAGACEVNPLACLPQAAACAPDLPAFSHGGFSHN
Method: Method to Determine the Ability of Compounds of Formula I to Inhibit Human Recombinant SSAO/VAP-1
Human recombinant SSAO/VAP-1 amine oxidase activity was determined using the method as described for monoamine oxidase, copper-containing amine oxidases and related enzymes (Holt A. and Palcic M., Nat. Protoc. 2006, 1, 2498-2505). Briefly, a cloned cDNA template corresponding to residues 34-763 of human SSAO/VAP-1, and incorporating a mouse Ig kappa (κ) signal sequence, N-terminal flag epitope tag and tobacco etch virus (TEV) cleavage site, was assembled in a mammalian expression vector (pLO-CMV) by Geneart AG. This vector containing human SSAO/VAP-1 residues was transfected into CHO-K1 glycosylation mutant cell line, Lec 8. A clone stably expressing human SSAO/VAP-1 was isolated and cultured in large scale. Active human SSAO/VAP-1 was purified and recovered using immunoaffinity chromatography. This was used as the source for SSAO/VAP-1 activity. A high-throughput colorimetric assay was developed using either 96 or 384 well format. Briefly, in a standard 96 well plate assay 50 μL of purified human SSAO/VAP-1 (0.25 μg/mL) in 0.1 M sodium phosphate buffer (pH 7.4) was added into each well. […] After 30 min incubation, 50 μL of the reaction mixture containing 600 μM benzylamine (Sigma Aldrich), 120 μM Amplex Red (Sigma Aldrich) and 1.5 U/mL horseradish peroxidase (Sigma Aldrich) prepared in 0.1 M sodium phosphate buffer (pH 7.4) were added to the corresponding well. The fluorescence unit (RFU) was read every 2.5 min for 30 min at 37° C. excitation 565 nm and emission 590 nm (Optima; BMG labtech). The slope of the kinetics for each well was calculated using MARS data analysis software (BMG labtech) and this value was used to deduce the IC50 value (Dotmatics).

Recombinant human MAO-B = biological target: T2, Recombinant human MAO-B (Homo sapiens, UniProt P27338); test: Inhibition of human recombinant MAO-B; assay type: biochemical; conditions: incubation time of 2 hours, benzylamine 100 μM
T2 construct: purchased Sigma Aldrich
T2 sequence (P27338 1-520): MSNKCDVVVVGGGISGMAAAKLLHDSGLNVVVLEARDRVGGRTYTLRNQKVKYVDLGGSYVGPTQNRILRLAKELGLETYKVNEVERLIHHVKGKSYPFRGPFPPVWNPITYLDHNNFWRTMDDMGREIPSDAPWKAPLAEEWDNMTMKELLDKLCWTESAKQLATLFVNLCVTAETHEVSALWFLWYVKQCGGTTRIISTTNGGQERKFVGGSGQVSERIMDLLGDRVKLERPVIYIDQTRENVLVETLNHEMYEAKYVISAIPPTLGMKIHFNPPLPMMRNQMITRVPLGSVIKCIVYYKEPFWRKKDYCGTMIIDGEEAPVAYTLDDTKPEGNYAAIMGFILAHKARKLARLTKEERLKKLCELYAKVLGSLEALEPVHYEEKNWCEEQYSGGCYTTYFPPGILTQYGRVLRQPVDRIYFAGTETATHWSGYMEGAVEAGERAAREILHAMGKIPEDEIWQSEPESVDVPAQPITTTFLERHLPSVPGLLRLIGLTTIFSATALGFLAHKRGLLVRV
Method: Method to Determine the Ability of Compounds of Formula I to Inhibit Human Recombinant MAO-B
The ability of the compounds of this invention to inhibit MAO-B activities in vitro was tested. Recombinant human MAO-B (0.06 mg/mL; Sigma Aldrich) was used as source of MAO-B enzyme activities.

[3] = tested on: cytochrome P450 (1A2, 2B6, 2C8, 2C9, 2C19, 2D6, 3A4); 44 enzymes, receptors, ion channels and transporters; 13 common transporters; 7 cardiac ion channel …; test: Off-target profile (cytochrome P450, Safety Screen panel, Transporter panel, Cardiac Ion Channel panel); conditions: all assays: CYP at 30 μM, panels at 10 μM, cardiac ion channels up to 300 μM
Method: Assessment of the off-target profile of Compound 1 using standardized commercially available methods (available through contract research organizations such as Eurofins Panlabs Inc, (https://www.eurofinsdiscoveryservices.com/services/in-vitro-assays/) or Evotec SE, (https://www.evotec.com/en/execute/integrated-pre-clinical-development/adme)).
The potential for off-target promiscuity in vivo was evaluated in vitro using the following assays:
Inhibition of cytochrome P450 activity (30 μM single concentration; 1A2, 2B6, 2C8, 2C9, 2C19, 2D6, 3A4)
Eurofins Discovery Safety Screen panel of 44 enzymes, receptors, ion channels and transporters (percentage inhibition at 10 μMconcentration).
Eurofins Transporter Protein Screen panel of 13 common transporters (percentage inhibition at 10 μM concentration).
Aptuit Cardiac Ion Channel panel of 7 targets (automated patch clamp assay; concentration 0 up to 300 μM).

| Structure (SMILES) | pharmacokinetic profile [1] | IC50 [2] [nM] | IC50 (Recombinant human MAO-B) [nM] | off-target profile [3] |
| --- | --- | --- | --- | --- |
| NC/C(=C\F)C1Cc2ccccc2O1 (single isomer, unassigned; (-)) [PXS-5131, (−)-(E)-2-(2,3-Dihydrobenzofuran-2-Yl)-3-Fluoroprop-2-En-1-Amine Hydrochloride] | inferior to Compound 1 |  |  |  |
| N#Cc1ccc(OC/C(=C/F)CN)cc1 [Compound 1, (E)-4-((2-(aminomethyl)-3-fluoroallyl)oxy) benzonitrile] |  | < 10 | < 50 | favorable off-target profile |
